Laboratory results from patent publication US4161527A, “Antibiotic compositions” (priority 1976, dated 1979).
Structures can show the parent of a compound that is named as a salt.

Tests used:
[1] = Color of the Samples 3 hours after dissolution; assay type: physicochemical; conditions: 3 ml. of distilled water
[2] = Dissolution time on addition of 3 ml. of distilled water; assay type: physicochemical; conditions: shaken vigorously
Description: To each of the Samples was added 3 ml. of distilled water and the times of dissolution were measured. […] Provided that, in dissolution, Samples A and B were allowed to stand, while Sample C was shaken vigorously.

[3] = test system: Staphylococcus aureus FDA 209 P; assay: Antibacterial spectrum (agar dilution), M.I.C.; assay type: cell-based; conditions: FDA209
[4] = test system: Escherichia coli NIHJ JC-2; assay: Antibacterial spectrum (agar dilution), M.I.C.; assay type: cell-based; conditions: NIHJJC2
[5] = Storage stability (general statement); assay type: physicochemical
[6] = test system: Gram-positive and Gram-negative bacteria; assay type: cell-based
[7] = test system: Proteus vulgaris IFO 3988; assay: Antibacterial spectrum (agar dilution), M.I.C.; assay type: cell-based; conditions: IFO3988
[8] = test system: local tissue at the sites of injection; assay: Local reactions at the sites of intramuscular injection (general statement); assay type: in vivo; conditions: intramuscularly injected
[9] = test system: Krebsiella pneumoniae DT; assay: Antibacterial spectrum (agar dilution), M.I.C.; assay type: cell-based
[10] = test system: Escherichia coli 0-111; assay: Antibacterial spectrum (agar dilution), M.I.C.; assay type: cell-based; conditions: 0111
Description: (§1) The antibacterial potency (M.I.C.) and toxicity of TTC
(§2) (1) Antibacterial spectrum (agar dilution)

[11] = test system: Escherichia coli T-7; assay: Antibacterial spectrum (agar dilution), M.I.C.; assay type: cell-based; conditions: T7
Description: as §1, §2

[12] = test system: Proteus morganii IFO 3848; assay: Antibacterial spectrum (agar dilution), M.I.C.; assay type: cell-based; conditions: Morganella morganii, IFO3848
[13] = test system: Staphylococcus aureus 1840; assay: Antibacterial spectrum (agar dilution), M.I.C.; assay type: cell-based
[14] = Dissolution in a solvent such as distilled water (general statement); assay type: physicochemical

| Compound | Color 3 hours after dissolution [1] | Dissolution time [2] | MIC [3] | MIC [4] | stability in storage [5] | antibacterial activity [6] | MIC [7] | local reactions at the sites of injection [8] | MIC [9] | MIC [10] | MIC [11] | MIC [12] | MIC [13] | dissolution [14] |
| --- | --- | --- | --- | --- | --- | --- | --- | --- | --- | --- | --- | --- | --- | --- |
| CN(C)CCn1nnnc1SCC1=C(C(=O)O)N2C(=O)[C@@H](NC(=O)Cc3csc(=N)[nH]3)[C@H]2SC1 [TTC hydrate, 7β-[2-(2-imino-4-thiazolin-4-yl)acetamido]-3-{1-[2-(N,N-dimethylamino)ethyl]-1-H-tetrazol-5-yl}thiomethyl-3-cephem-4-carboxylic acid dihydrochloride hydrate] | Reddish yellow | 180 s |  |  |  |  |  |  |  |  |  |  |  |  |
| CN(C)CCn1nnnc1SCC1=C(C(=O)O)N2C(=O)[C@@H](NC(=O)Cc3csc(N)n3)[C@H]2SC1.Cl.Cl [TTC, 7β-[2-(2-imino-4-thiazolin-4-yl)acetamido]-3-{1-[2-(N,N-dimethylamino)ethyl]-1H-tetrazol-5-yl}thiomethyl-3-cephem-4-carboxylic acid dihydrochloride] |  |  | 0.39 µg/mL | 0.2 µg/mL | stable in storage | strong antibacterial activity against Gram-positive and Gram-negative bacteria | 1.56 µg/mL | necrosis of muscle cells, discoloration or brown degeneration of the local tissue, hyperemia and other local reactions at the sites of injection | 0.1 µg/mL | 0.05 µg/mL | 1.56 µg/mL | 0.39 µg/mL | 0.78 µg/mL | rather slow to be dissolved |
